Experiments:
[1] = system: skin tumors in DMBA-initiated K6/ODC transgenic mice; assay: Skin tumor formation and growth in DMBA-initiated K6/ODC transgenic mice, meglumine in drinking water; type: in vivo
Protocol: K6/ODC transgenic mice are highly susceptible to developing skin tumors following a single treatment with a low subthreshold dose of the carcinogen DMBA. The effect of oral administration of meglumine in the drinking water was tested on the formation and growth of skin tumors in DMBA-initiated K6/ODC transgenic mice and their normal littermates. Four day old K6/ODC transgenic mice and their normal littermates were initiated with a single topical application of 300 nmol DMBA in 50 μl acetone.
(§1) Upon weaning, K6/ODC transgenic mice and their normal littermates were divided into two treatment groups where they received ad lib either tap water or water with 37.5 mM meglumine (Sigma Chemical Co.) in their drinking water. Meglumine-containing water was changed twice a week. […] Mice were monitored for tumor development. Tumor growth was assessed morphometrically using calipers, and tumor volumes were calculated according to the formula V (mm^3)=π/6×A×B^2 (A is larger diameter, B is the smaller diameter) (Buzzai et al.).

[2] = Tolerability of meglumine in the drinking water (water consumption, adverse effects); type: in vivo; conditions: 37.5 mM meglumine in drinking water ad lib; K6/ODC transgenic mice and normal littermates
Protocol: as §1

THP-1 cells = assay: LPS-induced cytokine levels in media of THP-1 cells (Bio-Plex immunoassay); type: cell-based, human; conditions: 25 ng LPS, 40 or 80 mM meglumine hydrochloride, 24 hours
Protocol: THP-1 cells (human acute monocytic leukemia) were grown in a 24-well polystyrene plate in 1 ml of RPMI media with 10% fetal bovine serum. Cells were treated with 25 ng of lipopolysaccharide (LPS) (Sigma) in the presence or absence of 40 or 80 mM meglumine hydrochloride. After 24 hours, the media was centrifuged to remove the cells and analyzed for cytokine content using a Bio-Plex® immunoassay (Bio-Rad). The LPS induced levels of IL-17, IL-8, MIP-1 alpha, MIP-1 beta, IL-9 and IP-10 were decreased in the presence of meglumine (FIG. 5).

skin tumors = conditions: DFMO given during the promotion phase; cited from earlier work
[3] = K6/ODC transgenic mice, compared to control water, monitored 4 months

CNC[C@H](O)[C@@H](O)[C@H](O)[C@H](O)CO [meglumine, (2R,3R,4R,5S)-6-methylaminohexane-1,2,3,4,5-pentol]
age at which all mice had skin tumors ([1]; K6/ODC transgenic mice (6/6), 37.5 mM meglumine in drinking water, control (5/5): 50 days): 73 days of age
age at which skin tumors first developed ([1]; K6/ODC transgenic mice, 37.5 mM meglumine in drinking water, control tap water: 45 days): 60 days of age
numbers of skin tumors ([1]; K6/ODC transgenic mice, at any given age, compared to control tap water, monitored 4 months): fewer
cumulative tumor burden (average total tumor volume per mouse) [1, 3]: lower
tumor growth [1, 3]: slowed
skin tumor development in normal littermates ([1]; normal littermates n=10, with or without meglumine-supplemented water, single subthreshold dose of DMBA): no normal littermates
adverse effects (weight loss, lethargy, ruffed fur, diarrhea, or general malaise) [2]: nor did it have any adverse effects
consumption of water [2]: did not affect

CNC[C@H](O)[C@@H](O)[C@H](O)[C@H](O)CO.Cl [meglumine hydrochloride]
LPS induced level of IL-8 (THP-1 cells): decreased
LPS induced level of IL-9 (THP-1 cells): decreased
LPS induced level of IL-17 (THP-1 cells): decreased
LPS induced level of IP-10 (THP-1 cells): decreased
LPS induced level of MIP-1 alpha (THP-1 cells): decreased
LPS induced level of MIP-1 beta (THP-1 cells): decreased

NCCC[C@](N)(C(=O)O)C(F)F [DFMO, α-difluoromethylornithine]
development of skin tumors (skin tumors): inhibits

Reference: patent US20190160084A1, “METHODS FOR THE TREATMENT OF CANCER USING MEGLUMINE” (Dynamis Pharmaceuticals, Inc., priority 2016, published 2019)
